Here are results for 23 compounds from patent publication US9856279B2 (AGIOS PHARMACEUTICALS, INC, priority 2011, dated 2018).

The target in one assay is IDH1 R132H (Homo sapiens, UniProt O75874, R132H). In words: Assay for IDH1 R132H inhibitors (NADPH/aKG, resazurin detection). Type of assay: biochemical. The note with it: enzyme assay of Example 12; read-out: IDH1R132H IC50. An outline of the steps:
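Compound added to substrate mix (8 uM NADPH, 2 mM aKG), then enzyme mix (0.2 μg/ml IDH1 R132H); 50 min RT in 20 mM Tris pH 7.5, 150 mM NaCl, 10 mM MgCl2, 0.03% BSA. Resazurin detection mix (30 μM) 5 min RT; resorufin fluorescence Ex544/Em590.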
A general note: Alamar Blue is a resazurin reagent that responds to reducing activity.

Another assay relates to HT1080 cells. Nature of the assay: Cellular assay for IDH1m inhibitors: inhibition of 2-HG production (LC-MS, 48 hours) in HT1080 cells. Type of assay: cell-based. The note with it: Homo sapiens, HT-1080; inhibition of 2-HG production, HT1080 cells; read-out: HT1080 IC50. The protocol:
Cells (e.g., HT1080 or U87MG) and are grown in T125 flasks in DMEM containing 10% FBS, 1× penicillin/streptomycin and 500 ug/mL G418. They are harvested by trypsin and seeded into 96 well white bottom plates at a density of 5000 cell/well in 100 ul/well in DMEM with 10% FBS. No cells are plates in columns 1 and 12. Cells are incubated overnight at 37° C. in 5% CO2. The next day compounds are made up at 2× concentration and 100 ul are added to each cell well. The final concentration of DMSO is 0.2% and the DMSO control wells are plated in row G. The plates are then placed in the incubator for 48 hours. At 48 hours, 100 μl of media is removed from each well and analyzed by LC-MS for 2-HG concentrations. The cell plate is placed back in the incubator for another 24 hours. At 72 hours post compound addition, 10 mL/plate of Promega Cell Titer Glo reagent is thawed and mixed. The cell plate is removed from the incubator and allowed to equilibrate to room temperature. Then 100 ul of reagent is added to each well of media. The cell plate is then placed on an orbital shaker for 10 minutes and then allowed to sit at room temperature for 20 minutes. The plate is then read for luminescence with an integration time of 500 ms.
The IC50 for inhibition of 2-HG production (concentration of test compound to reduce 2HG production by 50% compared to control) in these two cell lines for various compounds of formula I is set forth in Table 4 above.

Chain of IDH1 R132H (O75874 whole entry R132H): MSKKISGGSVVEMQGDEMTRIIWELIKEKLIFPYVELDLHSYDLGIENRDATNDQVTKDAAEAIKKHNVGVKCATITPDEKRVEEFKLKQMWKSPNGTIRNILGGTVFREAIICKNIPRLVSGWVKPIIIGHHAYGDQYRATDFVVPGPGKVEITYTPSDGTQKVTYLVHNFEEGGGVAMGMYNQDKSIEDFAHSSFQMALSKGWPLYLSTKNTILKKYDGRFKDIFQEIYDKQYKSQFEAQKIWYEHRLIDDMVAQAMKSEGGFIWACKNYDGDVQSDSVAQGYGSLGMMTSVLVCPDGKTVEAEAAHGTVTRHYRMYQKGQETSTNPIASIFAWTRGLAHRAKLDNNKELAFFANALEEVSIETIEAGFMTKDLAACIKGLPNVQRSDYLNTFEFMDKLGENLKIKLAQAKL

Regarding `C#CC(=O)N1CCC=C(c2cc(C#N)c(N3CCN(C(=O)C4CC4)[C@H](C)C3)nc2C2CC2)C1` [Compound 594, (R)-2-(4-(cyclopropanecarbonyl)-3-methylpiperazin-1-yl)-6-cyclopropyl-5-(1-propioloyl-1,2,5,6-tetrahydropyridin-3-yl)nicotinonitrile], the IC50 at IDH1 R132H and in the assay on HT1080 cells was under 500 nM in each case.
On to `C=Cc1ccnc(Nc2cc(C#N)c(N3CCN(C(=O)CCCO)[C@H](C4CC4)C3)nc2C2CC2)c1` [Compound 815, (R)-6-cyclopropyl-2-(3-cyclopropyl-4-(4-hydroxybutanoyl)piperazin-1-yl)-5-((4-vinylpyridin-2-yl)amino)nicotinonitrile], for which the IC50 at IDH1 R132H and in the assay with HT1080 cells was under 500 nM in each case.
Turning to `N#Cc1ccc2c(-c3cc(C#N)c(N4CCN(C(=O)C5CC5)[C@H](C5CC5)C4)nc3C3CC3)cccc2n1` [Compound 563, (R)-5-(5-cyano-6-(4-(cyclopropanecarbonyl)-3-cyclopropylpiperazin-1-yl)-2-cyclopropylpyridin-3-yl)quinoline-2-carbonitrile], the concentration for half-maximal inhibition (IC50) at IDH1 R132H and with HT1080 cells was under 500 nM throughout.
As to `N#Cc1ccnc(Nc2cc(C#N)c(N3CCN(C(=O)C[C@H]4CCO4)[C@H](C4CC4)C3)nc2C2CC2)n1` [Compound 808, 2-(5-cyano-2-cyclopropyl-6-((R)-3-cyclopropyl-4-(2-((R)-oxetan-2-yl)acetyl)piperazin-1-yl)pyridin-3-ylamino)pyrimidine-4-carbonitrile], the IC50 at IDH1 R132H and in the assay on HT1080 cells was under 500 nM each time.
Consider `CCO[C@H]1C[C@@H]1C(=O)N1CCN(c2nc(C3CC3)c(-c3cccc4cnccc34)cc2C#N)C[C@H]1C1CC1` [Compound 514, 6-cyclopropyl-2-((R)-3-cyclopropyl-4 ((1S,2S)-2-ethoxycyclopropanecarbonyl)piperazin-1-yl)-5-(isoquinolin-5-yl)nicotinonitrile], for which the IC50 at IDH1 R132H and with HT1080 cells was under 500 nM throughout.
Consider `C=Cc1ncccc1-c1cc(C#N)c(N2CCN(C(=O)CCOC)[C@H](C)C2)nc1C1CC1` [Compound 619, (R)-2-cyclopropyl-6-(4-(3-methoxypropanoyl)-3-methylpiperazin-1-yl)-2′-vinyl-3,3′-bipyridine-5-carbonitrile], for which the IC50 on IDH1 R132H and with HT1080 cells was under 500 nM throughout.
Take `C=Cc1nccc(-c2cc(C#N)c(N3CCN(C(=O)C4CC4)[C@H](C4CC4)C3)nc2C2CC2)c1F` [Compound 520, (R)-6-(4-(cyclopropanecarbonyl)-3-cyclopropylpiperazin-1-yl)-2-cyclopropyl-3′-fluoro-2′-vinyl-3,4′-bipyridine-5-carbonitrile]: the half-maximal inhibitory concentration (IC50) was 500 to 1000 nM on IDH1 R132H and under 500 nM with HT1080 cells.
The like results for `C=Cc1cc(-c2cc(C#N)c(N3CCN(C(=O)C4CC4)[C@@H](C4CC4)C3)nc2C2CC2)ncn1` [Compound 578, (S)-2-(4-(cyclopropanecarbonyl)-3-cyclopropylpiperazin-1-yl)-6-cyclopropyl-5-(6-vinylpyrimidin-4-yl)nicotinonitrile] were, in that order, under 500 nM and under 500 nM.
The like results for `C=Cc1cc(-c2cc(C#N)c(N3CCN(C(=O)CCOC)[C@H](C)C3)nc2C2CC2)cc(C#N)n1` [Compound 672, (R)-2-cyclopropyl-6-(4-(3-methoxypropanoyl)-3-methylpiperazin-1-yl)-6′-vinyl-[3,4′-bipyridine]-2′,5-dicarbonitrile] were, in that order, 500 to 1000 nM and 1000 to 10000 nM.
Turning to `N#Cc1cc(-c2cnc3[nH]ccc3c2)c(C2CC2)nc1N1CCN(C(=O)CC(F)(F)F)[C@H](C2CC2)C1` [Compound 539, (R)-6-cyclopropyl-2-(3-cyclopropyl-4-(3,3,3-trifluoropropanoyl)piperazin-1-yl)-5-(1H-pyrrolo[2,3-b]pyridin-5-yl)nicotinonitrile], the IC50 is under 500 nM at IDH1 R132H and 1000 to 10000 nM in the assay on HT1080 cells.
The like results for `C[C@@H]1CN(c2nc(C3CC3)c(-c3ccnc(C#N)c3)cc2C#N)CCN1C(=O)C1CC1` [Compound 522, (R)-6-(4-(cyclopropanecarbonyl)-3-methylpiperazin-1-yl)-2-cyclopropyl-3,4′-bipyridine-2′,5-dicarbonitrile] were, in that order, 500 to 1000 nM and 1000 to 10000 nM.
The like results for `CCO[C@@H]1C[C@@H]1C(=O)N1CCN(c2nc(C3CC3)c(-c3cccc4cnccc34)cc2C#N)C[C@H]1C` [Compound 517, 6-cyclopropyl-2-((R)-4-((1S,2R)-2-ethoxycyclopropanecarbonyl)-3-methylpiperazin-1-yl)-5-(isoquinolin-5-yl)nicotinonitrile] were, in that order, under 500 nM and 500 to 1000 nM.
The like results for `C=Cc1cc(-c2cc(C#N)c(N3CCN(C(=O)CCO)[C@H](C4CC4)C3)nc2C2CC2)c2cccnc2n1` [Compound 655, (R)-6-cyclopropyl-2-(3-cyclopropyl-4-(3-hydroxypropanoyl)piperazin-1-yl)-5-(2-vinyl-1,8-naphthyridin-4-yl)nicotinonitrile] were, in that order, under 500 nM and under 500 nM.
For `N#Cc1cc(-c2ccc3ncsc3c2)c(C2CC2)nc1N1CCN(C(=O)CC(F)(F)F)[C@H](C2CC2)C1` [Compound 537, (R)-5-(benzo[d]thiazol-6-yl)-6-cyclopropyl-2-(3-cyclopropyl-4-(3,3,3-trifluoropropanoyl)piperazin-1-yl)nicotinonitrile], the IC50 on IDH1 R132H is under 500 nM; with HT1080 cells it was 500 to 1000 nM.
The like results for `C=Cc1cc(N(C(C)=O)c2cc(C#N)c(N3CCN(C(=O)CCOC)[C@H](C)C3)nc2C2CC2)ccn1` [Compound 662, (R)—N-(5-cyano-2-cyclopropyl-6-(4-(3-methoxypropanoyl)-3-methylpiperazin-1-yl)pyridin-3-yl)-N-(2-vinylpyridin-4-yl)acetamide] were, in that order, under 500 nM and under 500 nM.
The like results for `C=CC(=O)N1CCOC(c2cc(C#N)c(N3CCN(C(=O)C4CC4)[C@H](C)C3)nc2C2CC2)C1` (stereo partly drawn) [Compound 600, 5-(4-acryloylmorpholin-2-yl)-2-((R)-4-(cyclopropanecarbonyl)-3-methylpiperazin-1-yl)-6-cyclopropylnicotinonitrile] were, in that order, 500 to 1000 nM and 500 to 1000 nM.
Regarding `N#Cc1ccc2c(-c3cc(C#N)c(N4CCN(C(=O)CC(F)(F)F)[C@H](C5CC5)C4)nc3C3CC3)cccc2n1` [Compound 535, (R)-5-(5-cyano-2-cyclopropyl-6-(3-cyclopropyl-4-(3,3,3-trifluoropropanoyl)piperazin-1-yl)pyridin-3-yl)quinoline-2-carbonitrile], the IC50 on IDH1 R132H and in the assay on HT1080 cells was under 500 nM throughout.
Consider `COCCC(=O)N1CCN(c2nc(C3CC3)c(Oc3ccnc(Cl)c3)cc2C#N)C[C@H]1C` [Compound 668, (R)-5-((2-chloropyridin-4-yl)oxy)-6-cyclopropyl-2-(4-(3-methoxypropanoyl)-3-methylpiperazin-1-yl)nicotinonitrile], for which the half-inhibitory concentration (IC50) at IDH1 R132H is under 500 nM; in the assay on HT1080 cells, 500 to 1000 nM.
In the case of `C=C(F)c1cc(-c2cc(C#N)c(N3CCN(C(=O)CCOC)[C@H](C)C3)nc2C2CC2)ncn1` [Compound 602, (R)-6-cyclopropyl-5-(6-(1-fluorovinyl)pyrimidin-4-yl)-2-(4-(3-methoxypropanoyl)-3-methylpiperazin-1-yl)nicotinonitrile], the IC50 on IDH1 R132H and in the assay on HT1080 cells was under 500 nM in each case.
With `C=Cc1ccc2c(-c3cc(C#N)c(N4CCN(C(=O)CCOC)[C@H](C5CC5)C4)nc3C3CC3)cccc2n1` [Compound 570, (R)-6-cyclopropyl-2-(3-cyclopropyl-4-(3-methoxypropanoyl)piperazin-1-yl)-5-(2-vinylquinolin-5-yl)nicotinonitrile], the IC50 on IDH1 R132H and with HT1080 cells was under 500 nM each time.
As for `C=C(C)c1cc(-c2cc(C#N)c(N3CCN(C(=O)CCOC)[C@H](C)C3)nc2C2CC2)ncn1` [Compound 598, (R)-6-cyclopropyl-2-(4-(3-methoxypropanoyl)-3-methylpiperazin-1-yl)-5-(6-(prop-1-en-2-yl)pyrimidin-4-yl)nicotinonitrile], the IC50 on IDH1 R132H is under 500 nM; in the assay with HT1080 cells it was 500 to 1000 nM.
Consider `C=Cc1cc(-c2cc(C#N)c(N3CCN(C(=O)CCC=O)[C@H](C)C3)nc2C2CC2)ccn1` [Compound 607, (R)-2-cyclopropyl-6-(3-methyl-4-(4-oxobutanoyl)piperazin-1-yl)-2′-vinyl-[3,4′-bipyridine]-5-carbonitrile], for which the half-maximal inhibitory concentration (IC50) at IDH1 R132H and with HT1080 cells was under 500 nM in each case.
For `N#Cc1cc(-c2cccc3cnc(Cl)cc23)c(C2CC2)nc1N1CCN(C(=O)C2CC2)[C@H](C2CC2)C1` [Compound 555, (R)-5-(3-chloroisoquinolin-5-yl)-2-(4-(cyclopropanecarbonyl)-3-cyclopropylpiperazin-1-yl)-6-cyclopropylnicotinonitrile], the IC50 is under 500 nM at IDH1 R132H and 500 to 1000 nM in the assay with HT1080 cells.

The term IC50 denotes the concentration needed to halve the response being measured.
